The record followed here is US20110275703A1, “SUBSTITUTED SPIROKETAL DERIVATIVES AND USE THEREOF AS THERAPEUTIC DRUG FOR DIABETES” (CHUGAI SEIYAKU KABUSHIKI KAISHA, priority 2007, published 2011).

Test [1] concerns db/db mice. Nature of the test: Study for glucose lowering effect in db/db mouse. Type of test: in vivo. The note with it: oral, 0.3 mg/kg, relative to control group; for inhibition in vivo at 0.3 mg/kg: Mus musculus, 6 hours, Table 3-2, read-out: Percent reduction of blood glucose (%) 6 hours after administration; for Percent reduction of blood glucose (%) 24 hours after administration: Table 3-2. In a few lines: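 Male db/db mice, 9–11 weeks old, were grouped (n=5) by body weight/blood glucose and dosed orally by gavage with compound in 0.5% CMC at 0.3 mg/10 mL or 3 mg/10 mL (10 mL/kg); controls got vehicle. Tail blood glucose was measured by hexokinase method before and serially after dosing, expressed as % reduction versus control.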

The target in test [2] is T1, human SGLT1 (Homo sapiens, UniProt P13866).
T1 construct: expressed in transfected cells; host or cells: CHO-K1
T1 sequence (P13866 1-664): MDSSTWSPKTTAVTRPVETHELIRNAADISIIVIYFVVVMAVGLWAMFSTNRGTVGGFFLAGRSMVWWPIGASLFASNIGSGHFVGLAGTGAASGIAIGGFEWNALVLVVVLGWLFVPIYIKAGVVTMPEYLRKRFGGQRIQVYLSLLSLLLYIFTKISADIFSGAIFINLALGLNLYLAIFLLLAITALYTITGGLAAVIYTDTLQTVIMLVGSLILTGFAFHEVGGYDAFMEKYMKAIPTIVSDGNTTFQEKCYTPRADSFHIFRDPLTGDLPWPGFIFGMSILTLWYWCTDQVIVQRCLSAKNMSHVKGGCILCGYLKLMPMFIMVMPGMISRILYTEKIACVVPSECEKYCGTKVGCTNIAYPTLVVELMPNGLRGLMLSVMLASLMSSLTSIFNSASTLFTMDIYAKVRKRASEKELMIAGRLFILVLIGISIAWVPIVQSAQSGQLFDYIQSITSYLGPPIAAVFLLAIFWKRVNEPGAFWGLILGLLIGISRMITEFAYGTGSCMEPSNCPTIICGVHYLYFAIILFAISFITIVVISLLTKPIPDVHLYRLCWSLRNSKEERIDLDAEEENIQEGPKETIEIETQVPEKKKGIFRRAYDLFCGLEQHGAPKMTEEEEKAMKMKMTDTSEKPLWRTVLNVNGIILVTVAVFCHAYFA
Nature of the test: Inhibitory activity against methyl-α-D-glucopyranoside uptake, CHO cells stably expressing human SGLT1. Type of test: cell-based. The note with it: Table 2-2; read-out: hSGLT1 IC50 value. An excerpt:
Evaluation of inhibitory activity against methyl-α-D-glucopyranoside uptake of human Na^+-glucose cotransporter (SGLT1 and SGLT2)
1) Construction of Human SGLT1 Expression Vector
Human SGLT1 cDNA was amplified by PCR with a cDNA library derived from human small intestine (Clontech) as a template, synthetic DNA primers and KOD+ DNA Polymerase (Toyobo Co., Ltd., Japan). The amplified cDNA was inserted into pcRII-Topo vector by using a Topo TA Cloning Dual Promoter kit (Invitrogen). E. coli competent cells (Invitrogen, TOP10) were transformed with the plasmid vector, cultured in LB medium containing ampicillin (50 mg/L) to grow ampicillin-resistant clones. The plasmid vector containing human SGLT1 cDNA was purified from the clone in a standard manner (see Maniatis et al., Molecular Cloning). Human SGLT1 cDNA added restriction enzyme recognition sites (Eco RI at 5′-end, Hind III at 3′-end) was amplified by PCR with the plasmid vector as a template, synthetic DNA primers containing an additional restriction enzyme recognition site, and KOD+ DNA Polymerase. This amplified cDNA was digested with Eco RI and Hind III and ligated into expression vector pcDNA3.1(−) (Invitrogen) digested with Eco RI and Hind III by a Rapid DNA Ligation kit (Roche Diagonostics). E. coli competent cells (Invitrogen, DH5α) were transformed with the ligated expression vector and grown in ampicillin-containing LB medium. Human SGLT1 expression vector was purified from the ampicillin-resistant clone in a standard manner.
3) Establishment of Cell Lines Stably Expressing Human SGLT1 or Human SGLT2
The human SGLT1 expression vector or the human SGLT2 expression vector was digested with the restriction enzyme Pvu I and transfected into CHO-Kl cells with FuGENE (Roche Diagonostics). After the transfection, the cells were cultured at 37° C. in the presence of 5% CO2 for about 3 weeks in DMEM medium (Gibco) containing penicillin (50 U/mL, SIGMA), streptomycin (50 mg/L, SIGMA), geneticin (200 mg/L, Nacalai Tesque, Inc., Japan) and 20% fetal bovine serum to obtain geneticin-resistant clones. Among these clones, clones stably expressing human SGLT1 or human SGLT2 were selected by the evaluating the sodium-dependent uptake activity of sugar (methyl-α-D-glucopyranoside).
4) Evaluation of Inhibitory Activity Against methyl-α-D-glucopyranoside uptake
Cell lines stably expressing human SGLT1 or human SGLT2 CHO were seeded in 96-well culture plates at a density of 30000 to 40000 cells/well and cultured for 4 to 6 days. The medium in these plates was removed and replaced by 150 μL/well pretreatment buffer (i.e., a buffer containing 140 mM choline chloride, 2 mM potassium chloride, 1 mM calcium chloride, 1 mM magnesium chloride, 10 mM 2-[4-(2-hydroxyethyl)-1-piperazinyl]ethanesulfonic acid and tris(hydroxymethyl)aminomethane, pH 7.4), and the plates were incubated at 37° C. for 20 minutes. The pretreatment buffer in the plates was removed, replaced by 50 μL/well fresh pretreatment buffer, and the plates were incubated at 37° C. for 20 minutes. Methyl-α-D-(U—^14C)glucopyranoside (6.3 mL, Amersham Pharmacia Biotech, 200 mCi/L) was added to and mixed with 100 mL buffer (i.e., a buffer containing 140 mM sodium chloride, 2 mM potassium chloride, 1 mM calcium chloride, 1 mM magnesium chloride, 1 mM methyl-α-D-glucopyranoside, 10 mM [4-(2-hydroxyethyl)-1-piperazinyl]ethanesulfonic acid and tris(hydroxymethyl)aminomethane, pH 7.4), which was used as uptake buffer. Test compounds were dissolved into uptake buffer and these test compound solutions were used for evaluating inhibitory activity. Uptake buffer without a test compound was used as a control solution. Moreover, for use in measuring baseline uptake in the absence of sodium, sodium-free solution was prepared in the same manner to contain 140 mM choline chloride instead of sodium chloride. […]

Structures are written as SMILES.

As a reminder, the IC50 is the concentration that gives 50% inhibition.

As to `CCOc1ccc(Cc2cc3c(cc2Cl)CO[C@]32O[C@H](CO)[C@@H](O)[C@H](O)[C@H]2O)cc1` [Example 5, (1S,3′R,4′S,5′S,6′R)-5-chloro-6-[(4-ethoxyphenyl)methyl]-3′,4′,5′,6′-tetrahydro-6′-(hydroxymethyl)-spiro[isobenzofuran-1(3H),2′-[2H]pyran]-3′,4′,5′-triol], in test [1], the inhibition in vivo at 0.3 mg/kg stood at 52% and the “Percent reduction of blood glucose (%) 24 hours after administration” value came to 25%. The IC50 in test [2] came to 425 nM.

`CCc1ccc(Cc2cc3c(cc2C)CO[C@]32O[C@H](CO)[C@@H](O)[C@H](O)[C@H]2O)cc1` [Comparative Compound 1, 1,1-anhydro-1-C-[5-(4-ethylphenyl)methyl-2-(hydroxymethyl)-4-methylphenyl]-β-glucopyranose, reference compound]: in test [2], the IC50 is 132 nM.

Consider `CC(C)c1ccc(Cc2cc3c(cc2Cl)CO[C@]32O[C@H](CO)[C@@H](O)[C@H](O)[C@H]2O)cc1` [Example 15, (1S,3′R,4′S,5′S,6′R)-5-chloro-3′,4′,5′,6′-tetrahydro-6′-(hydroxymethyl)-6-[(4-isopropylphenyl)methyl]-spiro[isobenzofuran-1(3H),2′-[2H]pyran]-3′,4′,5′-triol], for which, in test [1], the inhibition in vivo at 0.3 mg/kg came out at 50% and the “Percent reduction of blood glucose (%) 24 hours after administration” value worked out at 27%. The IC50 in test [2] was determined as 1010 nM.

In the case of `CCc1ccc(Cc2cc3c(cc2Cl)CO[C@]32O[C@H](CO)[C@@H](O)[C@H](O)[C@H]2O)cc1` [Example 1, (1S,3′R,4′S,5′S,6′R)-5-chloro-6-[(4-ethylphenyl)methyl]-3′,4′,5′,6′-tetrahydro-6′-(hydroxymethyl)-spiro[isobenzofuran-1(3H),2′-[2H]pyran]-3′,4′,5′-triol], in test [1], the inhibition in vivo at 0.3 mg/kg was 42% and the “Percent reduction of blood glucose (%) 24 hours after administration” value came to 32%. Also, the IC50 in test [2] turned out to be 201 nM.

For `Cc1cc2c(cc1Cc1ccc(C(C)C)cc1)[C@]1(OC2)O[C@H](CO)[C@@H](O)[C@H](O)[C@H]1O` [Example 21, (1S,3′R,4′S,5′S,6′R)-3′,4′,5′,6′-tetrahydro-6′-(hydroxymethyl)-6-[(4-isopropylphenyl)methyl]-5-methyl-spiro[isobenzofuran-1(3H),2′-[2H]pyran]-3′,4′,5′-triol], in test [1], the inhibition in vivo at 0.3 mg/kg came to 51% and the “Percent reduction of blood glucose (%) 24 hours after administration” value is 33%. The IC50 in test [2] amounted to 682 nM.

Regarding `CCCc1ccc(Cc2cc3c(cc2Cl)CO[C@]32O[C@H](CO)[C@@H](O)[C@H](O)[C@H]2O)cc1` [Example 9, (1S,3′R,4′S,5′S,6′R)-5-chloro-3′,4′,5′,6′-tetrahydro-6′-(hydroxymethyl)-6-[(4-propylphenyl)methyl]-spiro[isobenzofuran-1(3H),2′-[2H]pyran]-3′,4′,5′-triol], in test [1], the inhibition in vivo at 0.3 mg/kg amounted to 48% and the “Percent reduction of blood glucose (%) 24 hours after administration” value came to 28%. Also, in test [2], the IC50 worked out at 1360 nM.

Consider `OC[C@H]1O[C@]2(OCc3cc(Cl)c(Cc4ccc(CCF)cc4)cc32)[C@H](O)[C@@H](O)[C@@H]1O` [Example 8, (1S,3′R,4′S,5′S,6′R)-5-chloro-6-[(4-(2-fluoroethyl)phenyl)methyl]-3′,4′,5′,6′-tetrahydro-6′-(hydroxymethyl)-spiro[isobenzofuran-1(3H),2′-[2H]pyran]-3′,4′,5′-triol], for which, in test [1], the inhibition in vivo at 0.3 mg/kg was 48% and the “Percent reduction of blood glucose (%) 24 hours after administration” value is given as 27%. Also, the IC50 in test [2] is 355 nM.

For the compound `OC[C@H]1O[C@]2(OCc3cc(Cl)c(Cc4ccc5ccccc5c4)cc32)[C@H](O)[C@@H](O)[C@@H]1O` [Example 7, (1S,3′R,4′S,5′S,6′R)-5-chloro-3′,4′,5′,6′-tetrahydro-6′-(hydroxymethyl)-6-(2-naphthylmethyl)-spiro[isobenzofuran-1(3H),2′-[2H]pyran]-3′,4′,5′-triol], in test [1], the inhibition in vivo at 0.3 mg/kg was 54% and the “Percent reduction of blood glucose (%) 24 hours after administration” value stood at 42%. For the same compound, the IC50 in test [2] is 381 nM.
